From publication PMC11370232, “Repurposing of a library for high-content screening of inhibitors against Echinococcus granulosus” (Parasites & Vectors, 2024)
≈ marks a conversion by molar mass, not a printed value. Where a name gives a salt, the structure may show the parent alone. Read-outs that look alike come from different tables or passages of the source.

Experiments:
[1] = test system: MALT1; design: method as in SelleckChem library description; settings: ref SelleckChem library description; cited from earlier work
[2] = test system: Chk1; design: method as in SelleckChem library description; settings: ref SelleckChem library description, cited from earlier work
[3] = test system: lab-cultured E. granulosus microcysts (< 1 mm); test: In vitro microcyst viability assay; assay type: cell-based, Echinococcus granulosus; settings: 10 μM, 4 days
Method: The in vitro E. granulosus culture progression was divided into two stages: an early stage in which the PSC culture was established by digesting echinococcal cysts isolated from naturally infected sheep livers, followed by a late stage with differentiation into cysts. CSCs were cultured from PSCs according to our previously described method. Briefly, the PSCs were incubated at 37 °C in glass culture vessels in RPMI 1640 medium (Invitrogen, San Diego, CA) containing 20% (v/v) FCS (Invitrogen), 0.45% (w/v) yeast extract, 0.4% (w/v) glucose, 100 IU/mL penicillin, and 100 μg/mL streptomycin placed on a solid-phase base prepared by heating newborn calf serum at 75 °C for 45 min (Smyth, 1990). Approximately 100 PSCs/mL were cultured, and the liquid medium was replaced every 3 days. After 56 days of cultivation, about 10% of the PSCs had developed into cysts with a thin laminated layer. The external diameter of the cysts was 328.6 ± 48 μm, and they appeared to the naked eye as clear capsular cysts. The cysts were carefully aspirated from the culture flasks and separated from dead or undeveloped PSCs by Pasteur pipetting. CSCs included microcysts and cysts: the diameter of the microcysts ranged from 300 μm to 1 mm, and the diameters of the cysts were greater than 1 mm.
CSCs were cultured from PSCs utilizing the method described in a previous section. The in vitro cultured cysts (10 ± 5/well) or microcysts (10 ± 5/well) were seeded in 96-well plates before adding drugs. For the cyst/microcyst viability assay, cysts or microcysts were cultured in one well of a 96-well plate. After 1 day of culture, drugs were added to each well at a final concentration of 10 μM. For the cyst viability assay, the cyst survival rate was determined every 24 h after incubation with drugs, while for the microcyst viability assay, the survival rate of microcysts was determined at 4 days after drug incubation. The following equation was used for the death rate: death rate of CSCs (%) = 100 × (number of dead CSCs/number of total CSCs).

[4] = test system: alpha- and beta-coronaviruses; settings: cited from earlier work
[5] = Cytotoxicity in HepG2; settings: human
[6] = test system: E. granulosus cysts collected from mice infected with microcysts; test: Ex vivo cyst viability assay; assay type: cell-based, Echinococcus granulosus; settings: for metacestodicidal effect on cysts ex vivo: 1 to 20 μM, 7 days
Method: BALB/c mice were inoculated with cultured microcysts following the methodology outlined in a previous study; 10 weeks post-infection, the mice were euthanized, and cysts were harvested from the peritoneal cavity. The cysts were categorized as size-small cysts, with a diameter less than 5 mm and without PSCs, or large cysts, with a diameter greater than 5 mm and with PSCs. Subsequently, the cysts were incubated in bottles with RPMI 1640 culture medium enriched with 10% FCS and antibiotics.
To determine the effect of omaveloxolone (HY-12212, MCE) and niclosamide (HY-B0497, MCE) on isolated cyst viability ex vivo, cysts collected from the peritoneal cavity of infected mice were incubated with different concentrations of drugs (1, 5, and 20 μM) for 7 days. The mortality rate of the cysts was recorded each day according to the following equation: death rate of cyst/microcyst (%) = [number of dead (cysts and microcysts)/number of total (cysts and microcysts)].

[7] = test system: lab-cultured E. granulosus cysts (> 1 mm); test: In vitro cyst viability assay; assay type: cell-based, Echinococcus granulosus; settings: for inhibition at 10 µM: Echinococcus granulosus, 72 h, read-out: inhibitory rate against the cysts
[8] = test system: E. multilocularis metacestodes; design: method as in PMID 30396011; settings: cited from earlier work
[9] = test system: echinococcal cysts; design: method as in PMID 32279056; settings: three-dose intraperitoneal regimen, 57 mg/kg once a day for 3 days; cited from earlier work
[10] = test system: PI3Kα; design: method as in SelleckChem library description; settings: ref SelleckChem library description; cited from earlier work
[11] = test system: PI3Kβ; design: method as in SelleckChem library description; settings: ref SelleckChem library description; cited from earlier work
[12] = test system: PI3Kγ; design: method as in SelleckChem library description; settings: ref SelleckChem library description; cited from earlier work
[13] = test system: 20S proteasome; design: method as in SelleckChem library description; settings: ref SelleckChem library description; read-out: IC50, chymotrypsin-like activity of purified 20S proteasome; cited from earlier work
[14] = test system: HepG2; test: Cytotoxicity in HepG2; settings: read-out: Cytotoxicity in HepG2, CC50; HepG2
[15] = test system: Trypanosoma brucei brucei GUTat 3.1; design: method as in SelleckChem library description; settings: ref SelleckChem library description; cited from earlier work
[16] = test system: Plasmodium falciparum K1a; design: method as in SelleckChem library description; settings: ref SelleckChem library description; cited from earlier work
[17] = test system: CE; design: method as in PMID 15708321, PMID 11776080; settings: retrospective study; cited from earlier work
[18] = test system: E. multilocularis metacestodes; design: method as in PMID 32636148; settings: screening cascade; cited from earlier work
[19] = test system: EGFR; design: method as in SelleckChem library description; settings: ref SelleckChem library description; cited from earlier work
[20] = test system: E. multilocularis metacestode burden; design: method as in PMID 32636148; settings: oral treatment, mice infected intraperitoneally with metacestodes or orally with eggs, compared with albendazole; cited from earlier work
[21] = test system: E. multilocularis and E. granulosus s.s. PSCs, metacestode vesicles, and germinal layer cells; design: method as in PMID 37540716; settings: cited from earlier work
[22] = test system: PTEN; design: method as in SelleckChem library description; settings: ref SelleckChem library description; cited from earlier work
[23] = test system: N. fowleri; design: method as in earlier work; settings: cited from earlier work
[24] = in vitro; settings: human
[25] = test system: ALK; design: method as in SelleckChem library description; settings: ref SelleckChem library description, cited from earlier work
[26] = target: opioid receptor-like1 (ORL1) receptor; design: method as in SelleckChem library description; settings: ref SelleckChem library description; cited from earlier work
[27] = test system: HepG2
[28] = test system: p97; design: method as in SelleckChem library description; settings: ref SelleckChem library description; cited from earlier work

Molecule: MI-2 [MI-2 (MALT1 inhibitor)]
- IC50 [1]: 5840 nM

Molecule: CC1(C)CC[C@]2(NC(=O)C(C)(F)F)CC[C@]3(C)[C@H](C(=O)C=C4[C@@]5(C)C=C(C#N)C(=O)C(C)(C)[C@@H]5CC[C@]43C)[C@@H]2C1 [Omaveloxolone]
- effect on microcyst viability [3]: complete lethality
- coronavirus inhibition [4]: inhibitors of both alpha- and beta-coronaviruses
- CC50 ([5]; HepG2 cells): 9330 nM
- day on which all cysts were killed (complete lethality) [6]: ≤ 5 days
- reduction in cyst viability ([6]; 5 μM, by day 2, ex vivo): 50%
- metacestodicidal effect on cysts ex vivo [6]: obvious metacestodicidal effect
- inhibition at 10 µM [7]: 100%

Molecule: Cc1[nH]c2cc(F)cc(F)c2c(=O)c1-c1ccc(Oc2ccc(OC(F)(F)F)cc2)cc1 [MMV671636, ELQ-400]
- MIC50 against E. multilocularis metacestodes cultured in vitro [8]: 0.02 µM (≈ 0.00895 µg/mL)

Molecule: CC(C)(C)[C@H]1CC[C@H](CC2=C(O)C(=O)c3ccccc3C2=O)CC1 [MMV689480, buparvaquone]
- MIC50 against E. multilocularis metacestodes cultured in vitro [8]: 2.87 µM (≈ 0.937 µg/mL)

Molecule: CCC[C@H](NC(=O)/C(C#N)=C/c1cccc(Br)n1)c1ccccc1 [Degrasyn (WP1130), Degrasyn]
- cyst morphology after treatment ([7]; day 3 post-drug treatment, positive control): structural damage of the cyst

Molecule: COc1ccc2nc3cc(Cl)ccc3c(Nc3cc(CN4CCCC4)c(O)c(CN4CCCC4)c3)c2n1 [pyronaridine]
- cyst mortality [9]: 100%

Molecule: COc1ccc(-c2ccc3ncc4c(c3c2)n(-c2ccc(N3CCNCC3)c(C(F)(F)F)c2)c(=O)n4C)cn1 [BGT226 (NVP-BGT226), BGT226]
- IC50 [10]: 4 nM
- IC50 [11]: 63 nM
- IC50 [12]: 38 nM

Molecule: CC1=C(O)C(=O)C=C2C1=CC=C1[C@@]2(C)CC[C@@]2(C)[C@@H]3C[C@](C)(C(=O)O)CC[C@]3(C)CC[C@]12C [Celastrol]
- IC50 [13]: 2500 nM

Molecule: COc1ccc2c(c[n+](C)c3c4cc5c(cc4ccc23)OCO5)c1OC [Chelerythrine]
- effect on microcyst viability [3]: did not exert a significant inhibitory effect
- CC50 [5]: 32700 nM
- inhibition at 10 µM ([7]; 10 μM, day 3 post-treatment): 100%

Molecule: CC(=O)OC[C@H]1O[C@@H]([S-])[C@H](OC(C)=O)[C@@H](OC(C)=O)[C@@H]1OC(C)=O.CCP(CC)CC.[Au+] [Auranofin]
- effect on microcyst viability [3]: did not exert a significant inhibitory effect
- CC50 [14]: 13400 nM
- inhibitory rate against the cysts ([7]; 10 μM, day 3 post-treatment): 100%

Molecule: Elaiophylin
- IC50 [15]: 450 nM
- IC50 [16]: 360 nM

Molecule: CC(=O)Oc1cc(C)c(OC(C)=O)c2ccccc12 [Vitamin K4]
- CC50 ([5]; HepG2 cells): > 100000 nM

Molecule: CCCSc1ccc2nc(NC(=O)OC)[nH]c2c1 [albendazole]
- patients who did not respond favorably to the medication [17]: about 40%

Molecule: OC(c1cc(C(F)(F)F)nc2c(C(F)(F)F)cccc12)C1CCCCN1 (centres unmarked) [mefloquine]
- activity against E. multilocularis metacestodes in vitro [18]: active

Molecule: CC#CC(=O)Nc1ccc2ncnc(Nc3cccc(Br)c3)c2c1 [CL-387785 (EKI-785), CL-387785]
- IC50 [19]: 0.37 nM

Molecule: O=C(Nc1cccc(C(F)(F)F)c1)c1cc(Cl)ccc1O [MMV665807]
- effect on metacestode burden [20]: did not lead to a reduction of the metacestode burden
- activity against E. multilocularis metacestodes in vitro [18]: active
- activity against the parasites of both species in all four assays [21]: active

Molecule: CC(C)(C)C(=O)Nc1ccc2c(c1)C(=O)C(=O)c1ccccc1-2 [SF1670]
- IC50 [22]: 2000 nM

Molecule: COC(=O)[C@]12CCC(C)(C)C[C@H]1[C@H]1C(=O)C=C3[C@@]4(C)C=C(C#N)C(=O)C(C)(C)[C@@H]4CC[C@@]3(C)[C@]1(C)CC2 [Bardoxolone methyl]
- coronavirus inhibition [4]: inhibitors of both alpha- and beta-coronaviruses
- inhibition of N. fowleri growth ([23]; 24 h): approximately 85%
- inhibition of N. fowleri growth ([23]; 48 h): 97%
- CC50 [24]: 8130 nM
- inhibition at 10 µM ([7]; 10 μM, day 3 post-treatment): 100%

Molecule: CCc1ccc(OCc2ccccc2C(=O)Nc2ccc3nc(C)cc(N)c3c2)cc1 [JTC-801]
- effect on microcyst viability [3]: did not exert a significant inhibitory effect
- CC50 ([5]; HepG2 cells): 7430 nM
- IC50 [26]: 94 nM
- inhibition at 10 µM ([7]; 10 μM, day 3 post-treatment): 100%

Molecule: CCCCc1oc2ccc(NS(C)(=O)=O)cc2c1C(=O)c1ccc(OCCCN(CCCC)CCCC)cc1 [Dronedarone HCl]
- effect on microcyst viability [3]: did not exert a significant inhibitory effect
- CC50 ([5]; HepG2 cells): 15500 nM
- inhibition at 10 µM ([7]; 10 μM, day 3 post-treatment): 100%

Molecule: CC(C)(C)c1ccc(C(O)CCCN2CCC(C(O)(c3ccccc3)c3ccccc3)CC2)cc1 (centres unmarked) [Terfenadine]
- CC50 [24]: 7310 nM

Molecule: O=C(Nc1ccc([N+](=O)[O-])cc1Cl)c1cc(Cl)ccc1O [Niclosamide]
- effect on microcyst viability [3]: complete lethality
- day on which all cysts were killed (complete lethality) [6]: 7 days
- metacestodicidal effect on cysts ex vivo [6]: obvious metacestodicidal effect
- parasiticidal efficiency ([6]; low incubation concentration, from day 5, ex vivo): approximately 80%
- effect on metacestode burden [20]: did not lead to a reduction of the metacestode burden
- activity against E. multilocularis metacestodes in vitro [18]: active
- activity against the parasites of both species in all four assays [21]: active
- CC50 [24]: 6140 nM
- inhibition at 10 µM ([7]; 10 μM, day 3 post-treatment): 100%

Molecule: CC(C)(Cc1ccc2ccccc2c1)NC[C@@H](O)COc1cccc(Cl)c1C#N [NPS-2143]
- CC50 [27]: 15300 nM

Molecule: c1ccc(CNc2nc(NCc3ccccc3)c3ccccc3n2)cc1 [DBeQ]
- IC50 [28]: 1500 nM

Molecule: OC1(c2ccc(Cl)c(C(F)(F)F)c2)CCN(CCCC(c2ccc(F)cc2)c2ccc(F)cc2)CC1 [Penfluridol]
- CC50 ([5]; HepG2 cells): 8630 nM
